Measured values reported in US11753363B2, “13-oxidized ingenol derivative and use thereof” (Tianjin Pharmaceutical Da Ren Tang Group Corp., Ltd. …, priority 2017, dated 2023).
Values after ≈ are worked out from the molar mass of the structure shown.

Tests used:
[1] = test system: A549 (human lung cancer cells); assay: Inhibition of proliferation of tumor cell lines (MTT), A549; type: cell-based; settings: Homo sapiens, A549, 72 h, read-out: IC50 value of compound for inhibition of proliferation of tumor cell lines, A549
Procedure, shortened: (§1)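 Seventy-two-hour exposure of attached cells to the compounds (37° C, 5% CO2, serum-containing RPMI 1640), followed by 4 h MTT and 570 nm absorbance after DMSO; IC50 from a log-concentration regression of percent inhibition versus untreated controls.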

[2] = test system: BGC-823 (human gastric cancer cells); assay: Inhibition of proliferation of tumor cell lines (MTT), BGC-823; type: cell-based; settings: Homo sapiens, BGC-823, 72 h, read-out: IC50 value of compound for inhibition of proliferation of tumor cell lines, BGC-823
Procedure, shortened: as §1

[3] = test system: LOVO (human colon cancer cells); assay: Inhibition of proliferation of tumor cell lines (MTT), LOVO; type: cell-based; settings: Homo sapiens, 72 h, read-out: IC50 value of compound for inhibition of proliferation of tumor cell lines, LOVO
Procedure, shortened: as §1

[4] = test system: K562 (human leukemia cells); assay: Inhibition of proliferation of tumor cell lines (MTT), K562; type: cell-based; settings: Homo sapiens, K562, 72 h, read-out: IC50 value of compound for inhibition of proliferation of tumor cell lines, K562
Procedure, shortened: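 Cells in RPMI 1640 with 10% calf serum; adherent lines seeded at about 1×10^5/mL and attached 24 h, K562 at 2×10^5/mL. Compounds added in quadruplicate, 72 h at 37 °C, 5% CO2; MTT 4 h, DMSO-dissolved formazan read at 570 nm. IC50 from log-concentration versus inhibition-rate regression.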

[5] = test system: SMMC-7721 (human liver cancer cells); assay: Inhibition of proliferation of tumor cell lines (MTT), SMMC-7721; type: cell-based; settings: Homo sapiens, SMMC-7721, 72 h, read-out: IC50 value of compound for inhibition of proliferation of tumor cell lines, SMMC-7721
Procedure, shortened: as §1

[6] = test system: MCF-7 (human breast cancer cells); assay: Inhibition of proliferation of tumor cell lines (MTT), MCF-7; type: cell-based; settings: Homo sapiens, MCF7, MCF-7, 72 h, read-out: IC50 value of compound for inhibition of proliferation of tumor cell lines, MCF-7
Procedure, shortened: as §1

[7] = test system: HeLa (human cervical cancer cells); assay: Inhibition of proliferation of tumor cell lines (MTT), HeLa; type: cell-based; settings: Homo sapiens, 72 h, read-out: IC50 value of compound for inhibition of proliferation of tumor cell lines, HeLA
Procedure, shortened: as §1

[8] = test system: mouse B16-F10 melanoma cells; assay: Inhibition of proliferation of tumor cell lines (MTT), B16-F10; type: cell-based; settings: Mus musculus, B16-F10, 72 h, read-out: IC50 value of compound for inhibition of proliferation of tumor cell lines, B16-F10
Experimental: In this example, the inhibitory activity of compounds of the present invention against proliferation of seven human tumor cell lines and mouse B16-F10 melanoma cells was tested in vitro, and the IC50 value (50% inhibitory concentration) of compounds against each tumor cell line was calculated.
IC50 values of the compounds for A549, BGC-823, LOVO, MCF-7, SMMC-7721, HeLa, and B16-F10 cells were tested. The above cells were routinely cultured in 1640 nutrient solution containing 10% calf serum, with passage for 1 time every 2 days, and the cells in logarithmic growth phase were taken for experiments. After the A549, BGC-823, LOVO, MCF-7, SMMC-7721, HeLa and B16-F10 cells in logarithmic growth phase were subjected to 0.25% trypsin digestion, they were blown into a single cell suspension, and then the cell concentration was adjusted to about 1×10^5·mL^−1 using RPMI 1640 solution containing 10% calf serum. The cells were seeded in a 96-well culture plate at 100 μL per well, and cultured for 24 hours until the cells were attached. K562 cells were taken and centrifuged and diluted into 2×10^5·mL^−1 single cell suspension with RPMI 1640 solution containing 10% calf serum, and inoculated into a 96-well culture plate at 100 μL per well.
100 μL of sample solution with different concentrations to be tested were added to the above 96-well plate, each concentration was added to 4 wells in parallel, and the cell control group was added with an equal volume of RPMI 1640 medium containing 10% calf serum to make a reaction volume of 200 μL. After incubating in an incubator at 37° C., 5% CO2 for 72 h, 10 μL of 5 mg·mL^−1 MTT solution was added to each well, and incubated at 37° C. for 4 h. The supernatant was carefully aspirated, 180 μL of DMSO was added to each well followed by shaking, and the absorbance (OD) value was measured at 570 nm on the microplate reader. The inhibition rate was calculated, and regression equation was established with the logarithmic value of the sample concentration and the inhibition rate (IR) to find the IC50 value of the compound against the cells to be tested. IR (%)=(1−OD value of the experimental group/OD value of the cell control group)×100%

[9] = test system: neutrophilic granulocytes; assay: Neutrophil oxidative burst (luminol chemiluminescence); type: cell-based; settings: Neutrophil, rat neutrophils, (Csample−Ccontrol)/Ccontrol×100%, read-out: Efficiency of compounds in stimulating neutrophil oxidative burst; for activation at 3 µg/mL: 3 μg/mL; for activation at 0.1 µg/mL: 0.1 μg/mL
Procedure, shortened: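 Rat neutrophils isolated from abdominal aorta blood, resuspended in Hanks at 1×10^5 cells/well with 1 mM luminol stock added. Oxidative burst read by chemiluminescence after sample addition; efficiency (%) = (Csample−Ccontrol)/Ccontrol×100%.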

[10] = test system: release of IL-8 by human keratinocytes (HaCaT); assay: Release of IL-8 by human keratinocytes (HaCaT), IL-8 Elisa; type: cell-based; settings: Homo sapiens, HaCaT, 24 h, (Csample−Ccontrol)/Ccontrol×100%, read-out: Efficiency of compound in stimulating the release of IL-8 by HaCaT cells; for activation at 1 µg/mL: 1 μg/mL; for activation at 0.1 µg/mL: 0.1 μg/mL
Experimental: This Example investigated the effect of compound on release of IL-8 by human keratinocytes (HaCaT) and calculated the efficiency of each compound in stimulating the release of IL-8 by human keratinocytes (HaCaT).
Hacat cells were cultured in MEM+10% FBS under the conditions of 37° C., 5% CO2, and when the cells reached 80-95% fusion, they were inoculated into a 96-well culture plate (1×10^4 cells/well) at 100 μL/well, and incubated for 18-24 h. The supernatant was discarded and the cells were incubated for 3-6 h in 1% FBS medium. Different concentrations of the sample solution of compound to be tested were added to each well, and the cell control group was added with an equal volume of 1% FBS medium at 10 μL/well, and incubated for 24 h. The supernatant was taken and tested according to the operation sequence of the IL-8 Elisa kit. Calculation formula of Efficiency: Efficiency (%)=(Csample−Ccontrol)/Ccontrol×100%

[11] = test system: B16-F0 mouse melanoma; assay: Antitumor activity in B16-F0 mouse melanoma model; type: in vivo; settings: female C57BL/6J mice, intradermal B16 tumor, skin administration once per day for 3 days, 20 μL/mouse, tumor weight on day 19
Experimental: This Example investigated the antitumor activity of compounds in B16-F0 mouse melanoma model.
In vitro passage of B16-F0 tumor source was inoculated subcutaneously into female C57BL/6J mice, and passage was carried out after tumor formation. After passage, the subcutaneous tumor tissue of the tumor-bearing mice was taken and ground with 3 times amount of physiological saline to form a tumor cell suspension, and 0.2 mL/mouse of which was inoculated subcutaneously into the axilla of forelimb of mice, which were used as the tumor-source mice. Female C57BL/6J mice were taken and their hair in an area of 4 cm^2 on the neck and back was shaven. After anesthesia with diethyl ether, B16 tumor source was inoculated intradermally at 0.05 mL/mouse. After 3 days of inoculation, the skin was continuously administered for 3 days, once per day, 20 μL/mouse each time, and in the test, a solvent group as a negative control group was included. On the 19th day of the experiment, the experiment was terminated. After the mice were euthanized, the intradermally transplanted tumors were completely separated and excised, and the tumor was weighed to calculate the tumor inhibition rate. Calculation formula of tumor inhibition rate: tumor inhibition rate (%)=(Wmodel group−Wadministration group)/Wmodel group×100%
The tumor growths of the experimental group and the solvent control group were compared to evaluate the antitumor activity of each compound, and the compound with P<0.05 was considered to be effective.

Compound | IC50 [1] [µg/mL] | IC50 [2] [µg/mL] | IC50 [3] [µg/mL] | IC50 [4] [µg/mL] | IC50 [5] [µg/mL] | IC50 [6] [µg/mL] | IC50 [7] [µg/mL] | IC50 [8] [µg/mL] | activation at 3 µg/mL [9] [%] | activation at 1 µg/mL [10] [%] | Tumor-inhibition rate [11] [%] | activation at 0.1 µg/mL [10] [%] | activation at 0.1 µg/mL [9] [%]
C/C=C(/C)C(=O)O[C@H]1C(C)=C[C@]23C(=O)[C@@H](C=C(CO)[C@@H](O)[C@]12O)[C@@H]1C(C)(C)[C@]1(OC(=O)CCCCCCCCCCC)C[C@H]3C [Compound 9, 3-O-angeloyl-13-O-dodecanoyl-ingenol] | 10.8 (≈ 17.2 µM) | 0.85 (≈ 1.35 µM) | 10.1 (≈ 16.1 µM) | 1.87 (≈ 2.97 µM) | 8.86 (≈ 14.1 µM) | 10.1 (≈ 16.1 µM) | 12.5 (≈ 19.9 µM) | 10.4 (≈ 16.5 µM) | 77 | 23.5 | 71.8 | – | –
CCCCCCCCCCCC(=O)O[C@@]12C[C@@H](C)[C@]34C=C(C)[C@H](O)[C@@]3(O)[C@H](O)C(COC(C)=O)=C[C@H](C4=O)[C@@H]1C2(C)C [Compound 12, 20-O-acetyl-13-O-dodecanoyl-ingenol] | 16 (≈ 27.2 µM) | 10.3 (≈ 17.5 µM) | 6.71 (≈ 11.4 µM) | 0.06 (≈ 0.102 µM) | 12.7 (≈ 21.6 µM) | 12.7 (≈ 21.6 µM) | 32.3 (≈ 54.9 µM) | 14 (≈ 23.8 µM) | 88.3 | 37 | 40.7 | – | –
C/C=C(/C)C(=O)O[C@H]1C(C)=C[C@]23C(=O)[C@@H](C=C(CO)[C@@H](O)[C@]12O)[C@@H]1C(C)(C)[C@]1(OC(=O)CCC)C[C@H]3C [Compound 16, 3-O-angeloyl-13-O-butanoyl-ingenol] | 46.8 (≈ 90.6 µM) | 44.1 (≈ 85.4 µM) | 36.9 (≈ 71.4 µM) | 4.21 (≈ 8.15 µM) | 43.5 (≈ 84.2 µM) | 38.4 (≈ 74.3 µM) | 61.1 (≈ 118 µM) | 17 (≈ 32.9 µM) | 80.1 | – | 89.6 | 84.6 | –
C/C=C(/C)C(=O)O[C@H]1C(C)=C[C@]23C(=O)[C@@H](C=C(CO)[C@@H](O)[C@]12O)[C@@H]1C(C)(C)[C@]1(OC(=O)CCCCC)C[C@H]3C [Compound 17, 3-O-angeloyl-13-O-hexanoyl-ingenol] | 21.7 (≈ 39.8 µM) | 21.7 (≈ 39.8 µM) | 16.9 (≈ 31 µM) | 2.93 (≈ 5.38 µM) | 21.1 (≈ 38.7 µM) | 18.6 (≈ 34.1 µM) | 18.6 (≈ 34.1 µM) | 6.5 (≈ 11.9 µM) | – | – | 68.8 | 121 | 82.1
C/C=C(/C)C(=O)O[C@H]1C(C)=C[C@]23C(=O)[C@@H](C=C(CO)[C@@H](O)[C@]12O)[C@@H]1C(C)(C)[C@]1(OC(=O)CCCCCCC)C[C@H]3C [Compound 18, 3-O-angeloyl-13-O-octanoyl-ingenol] | 13.6 (≈ 23.7 µM) | 10.1 (≈ 17.6 µM) | 8.47 (≈ 14.8 µM) | 1.41 (≈ 2.46 µM) | 12.4 (≈ 21.7 µM) | 11.7 (≈ 20.4 µM) | 12.2 (≈ 21.3 µM) | 8.43 (≈ 14.7 µM) | – | – | 59.0 | 29.8 | 69.1
C/C=C(/C)C(=O)O[C@H]1C(C)=C[C@]23C(=O)[C@@H](C=C(CO)[C@@H](O)[C@]12O)[C@@H]1C(C)(C)[C@]1(OC(=O)CCCCCCCCC)C[C@H]3C [Compound 19, 3-O-angeloyl-13-O-decanoyl-ingenol] | 12.6 (≈ 21 µM) | 14 (≈ 23.3 µM) | 7.9 (≈ 13.1 µM) | 2.13 (≈ 3.55 µM) | 13.4 (≈ 22.3 µM) | 9.3 (≈ 15.5 µM) | 8.58 (≈ 14.3 µM) | 9.85 (≈ 16.4 µM) | – | – | 65.7 | 144 | 43.5
CCCCCCCCCCCC(=O)O[C@@]12C[C@@H](C)[C@]34C=C(C)[C@H](OC(=O)C(C)=C(C)C)[C@@]3(O)[C@H](O)C(CO)=C[C@H](C4=O)[C@@H]1C2(C)C [Compound 21, 3-O-(2,3-dimethylbutenoyl)-13-O-dodecanoyl-ingenol] | 11.8 (≈ 18.4 µM) | 10.4 (≈ 16.2 µM) | 12.4 (≈ 19.3 µM) | 2.06 (≈ 3.2 µM) | 12.8 (≈ 19.9 µM) | 8.32 (≈ 12.9 µM) | 15.3 (≈ 23.8 µM) | 15.1 (≈ 23.5 µM) | 34.8 | – | 64.1 | 127 | –
